Data as given in the NIST ThermoML archive (doi:10.1021/je060415l).
Numbers after ± are expanded uncertainties.

Assay: isobaric coefficient of expansion
Settings: Liquid, expansion method

CO [methanol]
isobaric coefficient of expansion (248.17 K, 45100 kPa): 0.000942 ± 3.3e-05 1/K
isobaric coefficient of expansion (248.19 K, 590 kPa): 0.00112 ± 3.4e-05 1/K
isobaric coefficient of expansion (249.69 K, 80030 kPa): 0.000847 ± 3.2e-05 1/K
isobaric coefficient of expansion (250.17 K, 20010 kPa): 0.00104 ± 3.3e-05 1/K
isobaric coefficient of expansion (250.17 K, 45100 kPa): 0.000939 ± 3.3e-05 1/K
isobaric coefficient of expansion (250.18 K, 590 kPa): 0.00112 ± 3.4e-05 1/K
isobaric coefficient of expansion (252.18 K, 590 kPa): 0.00113 ± 3.4e-05 1/K
isobaric coefficient of expansion (252.18 K, 20010 kPa): 0.00103 ± 3.3e-05 1/K
isobaric coefficient of expansion (252.18 K, 45100 kPa): 0.000938 ± 3.3e-05 1/K
isobaric coefficient of expansion (252.2 K, 80030 kPa): 0.000842 ± 3.2e-05 1/K
isobaric coefficient of expansion (254.18 K, 590 kPa): 0.00113 ± 3.4e-05 1/K
isobaric coefficient of expansion (254.18 K, 20010 kPa): 0.00103 ± 3.3e-05 1/K
isobaric coefficient of expansion (254.18 K, 45100 kPa): 0.00094 ± 3.3e-05 1/K
isobaric coefficient of expansion (254.72 K, 80030 kPa): 0.000837 ± 3.2e-05 1/K
isobaric coefficient of expansion (256.17 K, 590 kPa): 0.00114 ± 3.4e-05 1/K
isobaric coefficient of expansion (256.17 K, 20010 kPa): 0.00103 ± 3.3e-05 1/K
isobaric coefficient of expansion (256.18 K, 45100 kPa): 0.000937 ± 3.3e-05 1/K
isobaric coefficient of expansion (257.2 K, 80030 kPa): 0.00084 ± 3.2e-05 1/K
isobaric coefficient of expansion (258.17 K, 590 kPa): 0.00113 ± 3.4e-05 1/K
isobaric coefficient of expansion (258.17 K, 20010 kPa): 0.00104 ± 3.3e-05 1/K
isobaric coefficient of expansion (258.18 K, 45100 kPa): 0.000937 ± 3.3e-05 1/K
isobaric coefficient of expansion (259.68 K, 80030 kPa): 0.000841 ± 3.2e-05 1/K
isobaric coefficient of expansion (260.18 K, 590 kPa): 0.00113 ± 3.4e-05 1/K
isobaric coefficient of expansion (260.18 K, 45100 kPa): 0.000932 ± 3.3e-05 1/K
isobaric coefficient of expansion (262.17 K, 590 kPa): 0.00114 ± 3.4e-05 1/K
isobaric coefficient of expansion (262.17 K, 20010 kPa): 0.00103 ± 3.3e-05 1/K
isobaric coefficient of expansion (262.17 K, 45100 kPa): 0.000936 ± 3.3e-05 1/K
isobaric coefficient of expansion (262.21 K, 80030 kPa): 0.000841 ± 3.2e-05 1/K
isobaric coefficient of expansion (264.17 K, 20010 kPa): 0.00103 ± 3.3e-05 1/K
isobaric coefficient of expansion (264.17 K, 45100 kPa): 0.000938 ± 3.3e-05 1/K
isobaric coefficient of expansion (264.77 K, 80030 kPa): 0.000839 ± 3.2e-05 1/K
isobaric coefficient of expansion (266.17 K, 590 kPa): 0.00113 ± 3.4e-05 1/K
isobaric coefficient of expansion (266.17 K, 20010 kPa): 0.00103 ± 3.3e-05 1/K
isobaric coefficient of expansion (266.17 K, 45100 kPa): 0.000942 ± 3.3e-05 1/K
isobaric coefficient of expansion (267.34 K, 80030 kPa): 0.000835 ± 3.2e-05 1/K
isobaric coefficient of expansion (268.16 K, 20010 kPa): 0.00103 ± 3.3e-05 1/K
isobaric coefficient of expansion (268.17 K, 590 kPa): 0.00114 ± 3.4e-05 1/K
isobaric coefficient of expansion (268.17 K, 45100 kPa): 0.000934 ± 3.3e-05 1/K
isobaric coefficient of expansion (269.32 K, 80030 kPa): 0.000834 ± 3.2e-05 1/K
isobaric coefficient of expansion (270.16 K, 590 kPa): 0.00114 ± 3.4e-05 1/K
isobaric coefficient of expansion (270.16 K, 20010 kPa): 0.00104 ± 3.3e-05 1/K
isobaric coefficient of expansion (272.14 K, 45100 kPa): 0.00094 ± 3.3e-05 1/K
isobaric coefficient of expansion (272.52 K, 80030 kPa): 0.000831 ± 3.2e-05 1/K
isobaric coefficient of expansion (274.14 K, 45100 kPa): 0.000947 ± 3.3e-05 1/K
isobaric coefficient of expansion (274.15 K, 20010 kPa): 0.00104 ± 3.3e-05 1/K
isobaric coefficient of expansion (275.11 K, 80030 kPa): 0.000835 ± 3.2e-05 1/K
isobaric coefficient of expansion (276.12 K, 590 kPa): 0.00114 ± 3.4e-05 1/K
isobaric coefficient of expansion (276.14 K, 45100 kPa): 0.000938 ± 3.3e-05 1/K
isobaric coefficient of expansion (276.15 K, 20010 kPa): 0.00104 ± 3.3e-05 1/K
isobaric coefficient of expansion (277.69 K, 80030 kPa): 0.000835 ± 3.2e-05 1/K
isobaric coefficient of expansion (278.13 K, 45100 kPa): 0.00094 ± 3.3e-05 1/K
isobaric coefficient of expansion (278.15 K, 20010 kPa): 0.00104 ± 3.3e-05 1/K
isobaric coefficient of expansion (278.16 K, 590 kPa): 0.00115 ± 3.4e-05 1/K
isobaric coefficient of expansion (280.14 K, 45100 kPa): 0.00094 ± 3.3e-05 1/K
isobaric coefficient of expansion (280.15 K, 20010 kPa): 0.00104 ± 3.3e-05 1/K
isobaric coefficient of expansion (280.16 K, 590 kPa): 0.00115 ± 3.4e-05 1/K
isobaric coefficient of expansion (280.28 K, 80030 kPa): 0.000833 ± 3.2e-05 1/K
isobaric coefficient of expansion (282.13 K, 45100 kPa): 0.00094 ± 3.3e-05 1/K
isobaric coefficient of expansion (282.15 K, 590 kPa): 0.00116 ± 3.4e-05 1/K
isobaric coefficient of expansion (282.15 K, 20010 kPa): 0.00104 ± 3.3e-05 1/K
isobaric coefficient of expansion (282.88 K, 80030 kPa): 0.000832 ± 3.2e-05 1/K
isobaric coefficient of expansion (284.13 K, 45100 kPa): 0.000945 ± 3.3e-05 1/K
isobaric coefficient of expansion (284.14 K, 590 kPa): 0.00116 ± 3.4e-05 1/K
isobaric coefficient of expansion (284.14 K, 20010 kPa): 0.00104 ± 3.3e-05 1/K
isobaric coefficient of expansion (285.53 K, 80030 kPa): 0.000829 ± 3.2e-05 1/K
isobaric coefficient of expansion (286.15 K, 590 kPa): 0.00118 ± 3.4e-05 1/K
isobaric coefficient of expansion (286.15 K, 20010 kPa): 0.00105 ± 3.3e-05 1/K
isobaric coefficient of expansion (288.14 K, 45100 kPa): 0.000945 ± 3.3e-05 1/K
isobaric coefficient of expansion (288.16 K, 590 kPa): 0.00117 ± 3.4e-05 1/K
isobaric coefficient of expansion (288.17 K, 80030 kPa): 0.000826 ± 3.2e-05 1/K
isobaric coefficient of expansion (289.13 K, 590 kPa): 0.00118 ± 3.4e-05 1/K
isobaric coefficient of expansion (290.13 K, 45100 kPa): 0.000945 ± 3.3e-05 1/K
isobaric coefficient of expansion (290.14 K, 20010 kPa): 0.00106 ± 3.4e-05 1/K
isobaric coefficient of expansion (290.16 K, 590 kPa): 0.00117 ± 3.4e-05 1/K
isobaric coefficient of expansion (290.79 K, 80030 kPa): 0.000832 ± 3.2e-05 1/K
isobaric coefficient of expansion (291.13 K, 590 kPa): 0.00118 ± 3.4e-05 1/K
isobaric coefficient of expansion (292.14 K, 45100 kPa): 0.000943 ± 3.3e-05 1/K
isobaric coefficient of expansion (292.15 K, 20010 kPa): 0.00104 ± 3.3e-05 1/K
isobaric coefficient of expansion (292.16 K, 590 kPa): 0.00117 ± 3.4e-05 1/K
isobaric coefficient of expansion (293.12 K, 590 kPa): 0.00119 ± 3.4e-05 1/K
isobaric coefficient of expansion (293.4 K, 80030 kPa): 0.000846 ± 3.2e-05 1/K
isobaric coefficient of expansion (294.13 K, 45100 kPa): 0.000938 ± 3.3e-05 1/K
isobaric coefficient of expansion (294.14 K, 20010 kPa): 0.00105 ± 3.4e-05 1/K
isobaric coefficient of expansion (294.16 K, 590 kPa): 0.00118 ± 3.4e-05 1/K
isobaric coefficient of expansion (295.12 K, 590 kPa): 0.0012 ± 3.4e-05 1/K
isobaric coefficient of expansion (296.02 K, 80030 kPa): 0.000842 ± 3.2e-05 1/K
isobaric coefficient of expansion (296.13 K, 45100 kPa): 0.00094 ± 3.3e-05 1/K
isobaric coefficient of expansion (296.14 K, 20010 kPa): 0.00105 ± 3.4e-05 1/K
isobaric coefficient of expansion (296.16 K, 590 kPa): 0.00117 ± 3.4e-05 1/K
isobaric coefficient of expansion (297.12 K, 590 kPa): 0.00118 ± 3.4e-05 1/K
isobaric coefficient of expansion (298.13 K, 45100 kPa): 0.000942 ± 3.3e-05 1/K
isobaric coefficient of expansion (298.15 K, 20010 kPa): 0.00105 ± 3.3e-05 1/K
isobaric coefficient of expansion (298.17 K, 590 kPa): 0.00118 ± 3.4e-05 1/K
isobaric coefficient of expansion (298.65 K, 80030 kPa): 0.00085 ± 3.2e-05 1/K
isobaric coefficient of expansion (300.16 K, 590 kPa): 0.00119 ± 3.4e-05 1/K
isobaric coefficient of expansion (301.27 K, 80030 kPa): 0.000833 ± 3.2e-05 1/K
